Read-outs that look alike come from different tables or passages of the source.
Legend:
Assay type in all cases: cell-based
[1] = molecular target: T1, vanilloid receptor 1 (VR1/TRPV1) of the rat species (Rattus norvegicus, UniProt O35433); assay: FLIPR Ca2+ influx assay on rat dorsal root ganglia cells (pharmacological method I)
T1 construct: The spinal column is removed from decapitated rats; from tissue; host or cells: primary cells dissociated from rat dorsal root ganglia
Source text: I. Functional Investigation of the Vanilloid Receptor 1 (VR1/TRPV1 Receptor)
The agonistic or antagonistic action of the substances to be investigated on the vanilloid receptor 1 (VR1/TRPV1) of the rat species may be determined by the following assay. According to this assay, the influx of Ca^2+ through the receptor channel is quantified with the assistance of a Ca^2+-sensitive dye (type Fluo-4, Molecular Probes Europe BV, Leiden, Netherlands) in a Fluorescent Imaging Plate Reader (FLIPR, Molecular Devices, Sunnyvale, USA).
The spinal column is removed from decapitated rats and is placed directly in cold, i.e. located in an ice bath, HBSS buffer (Hank's buffered saline solution, Gibco Invitrogen GmbH, Karlsruhe, Germany) combined with 1 vol. % (percent by volume) of an AA solution (antibiotic/antimycotic solution, PAA, Pasching, Austria). The spinal column is cut open longitudinally and removed together with fasciae from the spinal canal. The dorsal root ganglia (DRGs) are then removed and in turn stored in cold HBSS buffer combined with 1 vol. % of an AA solution. The DRGs, from which all traces of blood and spinal nerves have been removed, are in each case transferred into 500 μL of cold collagenase type 2 (PAA, Pasching, Austria) and incubated for 35 minutes at 37° C. […] Once incubation is complete, the enzyme solution is carefully removed by pipette and the DRGs, which are left behind, are in each case combined with 500 μL of complete medium.
The DRGs are in each case repeatedly suspended, drawn by means of a syringe through […], no. 12 and no. 16 cannulas and transferred into 50 mL Falcon microtubes and each tube is made up to 15 mL with complete medium. The contents of each Falcon microtube are in each case filtered through a 70 μm Falcon filter insert and centrifuged for 10 minutes at 1200 revolutions and room temperature. The resultant pellet is in each case resuspended in 250 μL of complete medium and the cell count determined.
The number of cells in the suspension is adjusted to 3×10^5 per mL and a 150 μL portion of this suspension is in each case placed in a well of the cell culture plate which has been coated as described above.
The cells are then loaded with 2 μM Fluo-4 and 0.01 vol. % Pluronic F127 (Molecular Probes Europe BV, Leiden, Netherlands) in HBSS buffer (Hank's buffered saline solution, Gibco Invitrogen GmbH, Karlsruhe, Germany) for 30 min at 37° C., washed 3× with HBSS buffer and, after a further 15 minutes' incubation at room temperature, used for Ca^2+ measurement in the FLIPR assay. […] Quantification proceeds by measuring the highest fluorescence intensity (FC, fluorescence counts) over time.
The FLIPR protocol comprises 2 additions of substance. The compounds to be tested (10 μM) are firstly pipetted onto the cells and Ca^2+ influx is compared with the control (capsaicin 10 μM). This provides the percentage activation relative to the Ca^2+ signal after addition of 10 μM of capsaicin (CP). After 5 minutes' incubation, 100 nM of capsaicin are added and the influx of Ca^2+ is again determined.
Desensitising agonists and antagonists result in suppression of Ca^2+ influx. The percentage inhibition in comparison with the maximum achievable inhibition with 10 μM capsaicin is calculated.
Triplicate determinations (n═3) are performed and these are repeated in at least 3 independent experiments […].

vanilloid receptor (VR1) = molecular target: T2, vanilloid receptor (VR1) (Homo sapiens, UniProt Q8NER1); assay: FLIPR Ca2+ influx assay on CHO K1 cells transfected with the VR1 gene (pharmacological method II)
T2 construct: expressed in transfected cells; host or cells: CHO K1 cells (ECACC), stably transfected

VR1/TRPV1 receptor = VR1/TRPV1 receptor (Homo sapiens, UniProt Q8NER1); assay: IC50 (human) after pH stimulus; conditions: for inhibition at 1 µM / inhibition in percent, IC50 (human) after pH stimulus: ne = no effect, @ 1 μM
[2] = Ki (rat) Cap., table 4, capsaicin
[3] = table 4, capsaicin, read-out: Ki (human) Cap.
[4] = table 4, capsaicin, read-out: Ki (rat) Cap.
[5] = Table 2, displacement of capsaicin (100 nM), Cheng-Prusoff, read-out: Ki (rat)
[6] = Table 2, displacement of capsaicin (100 nM), Cheng-Prusoff, read-out: Ki (human)
[7] = read-out: inhibition in percent, IC50 (human) after pH stimulus

T2 sequence (Q8NER1 whole entry): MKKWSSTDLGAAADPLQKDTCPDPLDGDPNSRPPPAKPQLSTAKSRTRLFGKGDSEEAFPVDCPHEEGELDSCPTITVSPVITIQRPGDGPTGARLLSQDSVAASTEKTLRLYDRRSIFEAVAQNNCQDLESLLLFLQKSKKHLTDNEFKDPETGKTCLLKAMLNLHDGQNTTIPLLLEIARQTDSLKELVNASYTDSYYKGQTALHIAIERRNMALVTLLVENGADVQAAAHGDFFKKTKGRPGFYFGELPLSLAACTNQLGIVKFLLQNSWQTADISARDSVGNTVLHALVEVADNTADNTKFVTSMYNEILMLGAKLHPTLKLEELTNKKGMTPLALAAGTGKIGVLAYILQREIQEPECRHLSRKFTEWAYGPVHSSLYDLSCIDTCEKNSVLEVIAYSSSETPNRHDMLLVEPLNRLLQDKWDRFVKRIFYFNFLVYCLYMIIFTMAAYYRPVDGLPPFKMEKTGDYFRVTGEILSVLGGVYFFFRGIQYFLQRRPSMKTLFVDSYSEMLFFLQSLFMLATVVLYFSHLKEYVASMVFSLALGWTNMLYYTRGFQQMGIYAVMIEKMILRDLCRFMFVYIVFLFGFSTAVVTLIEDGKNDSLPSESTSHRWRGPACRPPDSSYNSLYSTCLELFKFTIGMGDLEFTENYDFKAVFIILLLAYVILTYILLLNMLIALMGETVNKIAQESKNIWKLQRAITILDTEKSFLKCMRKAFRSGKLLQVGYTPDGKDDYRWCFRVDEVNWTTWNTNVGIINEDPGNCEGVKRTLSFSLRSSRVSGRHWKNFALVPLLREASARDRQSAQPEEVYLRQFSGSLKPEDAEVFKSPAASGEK
Chain of VR1/TRPV1 receptor (Q8NER1 whole entry): as above
T1 sequence (O35433 whole entry): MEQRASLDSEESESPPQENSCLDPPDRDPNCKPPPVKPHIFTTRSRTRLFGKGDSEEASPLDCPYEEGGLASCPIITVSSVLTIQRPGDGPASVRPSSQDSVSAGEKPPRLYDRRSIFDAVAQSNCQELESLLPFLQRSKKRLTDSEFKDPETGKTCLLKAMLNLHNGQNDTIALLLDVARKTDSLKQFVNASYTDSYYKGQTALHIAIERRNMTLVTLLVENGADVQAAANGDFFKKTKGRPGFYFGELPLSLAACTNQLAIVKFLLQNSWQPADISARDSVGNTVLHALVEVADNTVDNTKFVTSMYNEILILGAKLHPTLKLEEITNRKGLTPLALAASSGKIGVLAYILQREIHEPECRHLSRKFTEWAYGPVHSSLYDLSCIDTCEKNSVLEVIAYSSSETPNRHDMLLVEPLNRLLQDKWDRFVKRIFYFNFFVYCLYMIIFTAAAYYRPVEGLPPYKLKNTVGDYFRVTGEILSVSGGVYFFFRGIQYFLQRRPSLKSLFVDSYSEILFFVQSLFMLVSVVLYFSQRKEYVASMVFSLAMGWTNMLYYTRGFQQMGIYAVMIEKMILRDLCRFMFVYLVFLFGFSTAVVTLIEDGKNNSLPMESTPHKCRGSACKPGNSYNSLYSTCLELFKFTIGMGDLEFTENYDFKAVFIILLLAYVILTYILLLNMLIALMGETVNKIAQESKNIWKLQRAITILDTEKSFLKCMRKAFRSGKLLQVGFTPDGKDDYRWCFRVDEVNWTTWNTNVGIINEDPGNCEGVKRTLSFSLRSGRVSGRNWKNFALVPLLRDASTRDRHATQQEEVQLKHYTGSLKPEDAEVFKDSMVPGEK

| Ki (vanilloid receptor (VR1); [3]) [nM] | IC50 (VR1/TRPV1 receptor; table 4) [nM] | Ki [1, 4] [nM] | Structure (SMILES) | also measured |
| --- | --- | --- | --- | --- |
| 2.1 | 182 | – | CC(C(=O)NCc1ccc(C(F)(F)F)nc1OCc1ccc(C(C)(C)C)cc1)c1ccc(NS(C)(=O)=O)c(F)c1 (stereo not shown) [Example 244, N-[2-(4-tert-butyl-benzyloxy)-6-trifluoromethyl-pyridin-3-ylmethyl]-2-(3-fluoro-4-methylsulfonamido-phenyl)-propionamide] | Ki [1, 2]: 1.1 nM |
| 0.9 | 40.5 | 0.6 | CC(C(=O)NCc1ccc(C(F)(F)Cl)nc1OCc1ccccc1)c1ccc(NS(C)(=O)=O)c(F)c1 (stereo not shown) [Example 169, N-[2-benzyloxy-6-(chloro-difluoro-methyl)-pyridin-3-ylmethyl]-2-(3-fluoro-4-methylsulfonamido-phenyl)-propionamide] | – |
| – | – | – | CC(C(=O)NCc1ccc(C(F)(F)F)cc1N1CCOCC1)c1ccc(NS(C)(=O)=O)c(F)c1 (stereo not shown) [Example 33, 2-(3-fluoro-4-(methylsulfonamido)phenyl)-N-(2-morpholino-4-(trifluoromethyl)benzyl)propanamide] | Ki [1, 5]: 4.8 nM; Ki (vanilloid receptor (VR1); [6]): 7.2 nM; IC50 (VR1/TRPV1 receptor; Table 2): 1380 nM |
| 28.6 | – | 23.9 | CC(C(=O)NCc1ccc(C(C)(C)C)cc1N1CCCCC1)c1ccc(NS(C)(=O)=O)c(F)c1 (stereo not shown) [Example 63, N-(4-tert-butyl-2-(piperidin-1-yl)benzyl)-2-(3-fluoro-4-(methylsulfonamido)-phenyl)propanamide] | inhibition at 1 µM (VR1/TRPV1 receptor; [7]): 70% |
| 2.5 | – | 3.3 | COc1cc(C(C)C(=O)NCc2ccc(C(F)(F)F)nc2N2CCC(C)CC2)ccc1NS(C)(=O)=O (stereo not shown) [Example 289, 2-(4-methylsulfonamido-3-methoxy-phenyl)-N-(4-methyl-6′-trifluoromethyl-3,4,5,6-tetrahydro-2H-[1,2′]bipyridinyl-3′-ylmethyl)-propionamide] | inhibition in percent, IC50 (human) after pH stimulus (VR1/TRPV1 receptor): ne @ 1 μM |
| 0.7 | 87 | 0.5 | Cc1ccc(N2CCN(c3cc(C(F)(F)F)ccc3CNC(=O)C(C)c3ccc(NS(C)(=O)=O)c(F)c3)CC2)cc1 (stereo not shown) [Example 246, 2-(3-fluoro-4-methylsulfonamido-phenyl)-N-[2-(4-p-tolyl-piperazin-1-yl)-4-trifluoromethyl-benzyl]-propionamide] | – |
| 3.4 | 39.2 | 2.4 | Cc1cccc(N2CCN(c3nc(C(F)(F)F)ccc3CNC(=O)C(C)c3ccc(NS(C)(=O)=O)c(F)c3)CC2)c1 (stereo not shown) [Example 220, 2-(3-fluoro-4-methylsulfonamido-phenyl)-N-[2-(4-m-tolyl-piperazin-1-yl)-6-trifluoromethyl-pyridin-3-ylmethyl]-propionamide] | – |
| 1.4 | 37.6 | 0.8 | CC(C(=O)NCc1ccc(C(F)(F)F)cc1N1CCC(Cc2ccccc2)CC1)c1ccc(NS(C)(=O)=O)c(F)c1 (stereo not shown) [Example 231, N-[2-(4-benzyl-piperidin-1-yl)-4-trifluoromethyl-benzyl]-2-(3-fluoro-4-methylsulfonamido-phenyl)-propionamide] | – |
| – | – | – | CC(C(=O)NCc1ncc(C(F)(F)F)cc1Cl)c1ccc(NS(C)(=O)=O)c(F)c1 (stereo not shown) [Example 77] | inhibition in percent, Ki (rat) Cap. ([1]; @ 10 μM): 57% @ 10 μM; inhibition in percent, Ki (human) Cap. (vanilloid receptor (VR1); @ 10 μM): 21% @ 10 μM; inhibition in percent, IC50 (human) after pH stimulus (VR1/TRPV1 receptor): ne @ 1 μM |
| – | – | – | CC(C(=O)NCc1ccc(C(C)(C)C)cc1C#N)c1ccc(NS(C)(=O)=O)c(F)c1 (stereo not shown) [Example 70, N-(4-tert-butyl-2-cyanobenzyl)-2-(3-fluoro-4-(methylsulfonamido)-phenyl)propanamide] | Ki [1, 5]: 9 nM; Ki (vanilloid receptor (VR1); [6]): 15.5 nM; IC50 (VR1/TRPV1 receptor; Table 2): 1490 nM |
| 0.4 | 11.6 | – | CC(C(=O)NCc1ccc(C(F)(F)F)nc1OCC1CCCC1)c1ccc(NS(C)(=O)=O)c(F)c1 (stereo not shown) [Example 161, N-(2-cyclopentylmethoxy-6-trifluoromethyl-pyridin-3-ylmethyl)-2-(3-fluoro-4-methylsulfonamido-phenyl)-propionamide] | Ki [1, 2]: 0.7 nM |
| 15.8 | 203 | 10.9 | CC(C(=O)NCc1ccc(C(F)(F)F)nc1NCc1ccccc1)c1ccc(NS(C)(=O)=O)c(F)c1 (stereo not shown) [Example 115, N-(2-benzylamino-6-trifluoromethyl-pyridin-3-ylmethyl)-2-(3-fluoro-4-methylsulfonamido-phenyl)-propionamide] | – |
| 142 | 3440 | 30.3 | CC(C(=O)NCc1ccc(C(F)(F)F)nc1OCc1cccnc1)c1ccc(NS(C)(=O)=O)c(F)c1 (stereo not shown) [Example 211, 2-(3-fluoro-4-methylsulfonamido-phenyl)-N-[2-(pyridin-3-ylmethoxy)-6-trifluoromethyl-pyridin-3-ylmethyl]-propionamide] | – |
| – | – | – | CC(C(=O)NCc1ccc(C(F)(F)F)cc1Cl)c1ccc(NS(C)(=O)=O)c(F)c1 (stereo not shown) [Example 75, N-(2-chloro-4-(trifluoromethyl)benzyl)-2-(3-fluoro-4-(methylsulfonamido)phenyl)propanamide] | Ki [1, 5]: 12.9 nM; Ki (vanilloid receptor (VR1); [6]): 4 nM; IC50 (VR1/TRPV1 receptor; Table 2): 1210 nM |
| 1 | 8.9 | 1.2 | CCCCCc1nc(C(F)(F)F)ccc1CNC(=O)C(C)c1ccc(NS(C)(=O)=O)c(F)c1 (stereo not shown) [Example 142, 2-(3-fluoro-4-methylsulfonamido-phenyl)-N-(2-pentyl-6-trifluoromethyl-pyridin-3-ylmethyl)-propionamide] | – |
| 0.7 | 25.6 | 0.8 | CC1CC(C)CN(c2nc(C(F)(F)F)ccc2CNC(=O)C(C)c2ccc(NS(C)(=O)=O)c(F)c2)C1 (stereo not shown) [Example 79, 2-(3-fluoro-4-methylsulfonamido-phenyl)-N-(2-3,5 dimethylpiperidin-1-yl-6-trifluoromethyl-pyridin-3-ylmethyl)-propionamide] | – |
| 0.3 | 26.2 | 1.8 | CCCN(CCC)c1cc(C(F)(F)F)ccc1CNC(=O)C(C)c1ccc(NS(C)(=O)=O)c(F)c1 (stereo not shown) [Example 37, N-(2-(dipropylamino)-4-(trifluoromethyl)benzyl)-2-(3-fluoro-4-(methylsulfonamido)phenyl)propanamide] | – |
| 19.1 | 2390 | 67.9 | CC(C(=O)NCc1ccc(C(F)(F)F)nc1N(C)C)c1ccc(NS(C)(=O)=O)c(F)c1 (stereo not shown) [Example 85, N-(2-dimethylamino-6-trifluoromethyl-pyridin-3-ylmethyl)-2-(3-fluoro-4-methylsulfonamido-phenyl)-propionamide] | – |
| 21.6 | – | 25.3 | CC(C(=O)NCc1ccc(C(F)(F)F)nc1N1CCN(C2CCCCC2)CC1)c1ccc(NS(C)(=O)=O)c(F)c1 (stereo not shown) [Example 260, N-[2-(4-cyclohexyl-piperazin-1-yl)-6-trifluoromethyl-pyridin-3-ylmethyl]-2-(3-fluoro-4-methylsulfonamido-phenyl)-propionamide] | inhibition at 1 µM (VR1/TRPV1 receptor; [7]): 51%; inhibition at 10 µM (VR1/TRPV1 receptor; @ 10 μM, read-out: inhibition in percent, IC50 (human) after pH stimulus): 66% |

| Structure (SMILES) | Ki (vanilloid receptor (VR1); [3]) [nM] | IC50 (VR1/TRPV1 receptor; table 4) [nM] | Ki [1, 4] [nM] | also measured |
| --- | --- | --- | --- | --- |
| CC(C)COc1cc(C(C)(C)C)ccc1CNC(=O)C(C)c1ccc(NS(C)(=O)=O)c(F)c1 (stereo not shown) [Example 133, N-(4-tert-butyl-2-isobutoxy-benzyl)-2-(3-fluoro-4-methylsulfonamido-phenyl)-propionamide] | 2.1 | – | 0.7 | inhibition at 1 µM (VR1/TRPV1 receptor; [7]): 62% |

From patent US8710233B2 (Gruenenthal GmbH, priority 2005, dated 2014)
